# US20210078972A1, “QUINOLINE OR QUINAZOLINE COMPOUND AND APPLICATION THEREOF” (HAIHE BIOPHARMA CO., LTD., priority 2018, published 2021)
# Key:
# [1] = biological target: T1, AXL kinase domain recombinant protein (Homo sapiens, UniProt P30530); test: AXL kinase inhibition, ELISA; assay type: biochemical; settings: ATP 5 μM
# T1 construct: the AXL kinase domain recombinant protein (eurofins, 14-512); purchased eurofins 14-512
# T1 sequence (P30530 536-807 limits assumed): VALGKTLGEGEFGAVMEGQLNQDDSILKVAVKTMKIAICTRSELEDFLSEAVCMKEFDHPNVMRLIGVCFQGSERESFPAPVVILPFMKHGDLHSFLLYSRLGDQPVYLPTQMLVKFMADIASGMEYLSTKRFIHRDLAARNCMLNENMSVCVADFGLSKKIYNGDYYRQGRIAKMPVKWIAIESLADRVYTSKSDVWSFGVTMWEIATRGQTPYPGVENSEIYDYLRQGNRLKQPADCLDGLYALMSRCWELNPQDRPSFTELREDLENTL
# Procedure: Detection of the activity of kinase: Enzyme-linked immunosorbent assay (ELISA) technology was used to detect the inhibitory activities of the compounds against the kinase. […] After the liquid in the well was discarded, the plate was washed three times with T-PBS (PBS containing 0.1% Tween-20), 200 μL T-PBS per well, 5 minutes for each time. The enzyme label plate was dried in an oven at 37° C. for 1-2 hours. To each well was added 50 μL of ATP solution diluted with reaction buffer (50 mM HEPES, pH 7.4, 50 mM MgCl2, 0.5 mM MnCl2, 0.2 mM Na3VO4, 1 mM DTT) with a final concentration of 5 μM. […] Two wells with no enzyme for control are required for each experiment. The plate was incubated on a shaker (100 rpm) at 37° C. and reacted for 1 hour. The plate was washed three times with T-PBS. 100 μ/well of primary antibody PY99 dilution was added and the plate was reacted in a shaker at 37° C. for 0.5 hour. The plate was washed three times with T-PBS. 100 μ/well of secondary antibody horseradish peroxidase-labeled goat anti-mouse IgG dilution was added and the plate was reacted in a shaker at 37° C. for 0.5 hour. The plate was washed three times with T-PBS. 2 mg/ml of OPD color solution was added with 100 μ/well (diluted with 0.1 M citric acid-sodium citrate buffer (pH=5.4) containing 0.03% H2O2), and the plate was reacted at 25° C. in the dark for 1-10 minutes. (Ultrasound is required for the dissolution of OPD, and the color solution needs to be prepared for immediate use). 50 μ/well of 2 M H2SO4 was added to stop the reaction, and the wavelength-adjustable enzyme-labeling instrument SPECTRA MAX 190 was used to read the data at a wavelength of 490 nm.
# The inhibition rate of the sample was obtained by the following formula: […]
# The IC50 values were obtained by regression with the four-parameter method using the software attached to the enzyme-labeling instrument.
# [2] = test system: Mixed primary male CD-1 mouse hepatocytes; test: Metabolism in mouse hepatocytes, UPLC-UV/Q-TOF MS; assay type: in vitro ADME; settings: 180 min
# Procedure: In this example, a UPLC-UV/Q-TOF MS method was used to evaluate the differences in the metabolic processes of TL134 in hepatocytes of five species of human, monkey, canine, rat, and mouse. It provides a reference for the selection of preclinical pharmacokinetics and studies on animal species safety evaluation.
# The total volume of each incubation sample was 100 μL, the medium was WME medium (pH 7.4), and the incubation sample included hepatocytes with a cell density of 1.0×10^6 cells/mL and TL134 with a final concentration of 3.0 μM; the negative control sample was incubated with thermal-inactivated mixed hepatocytes (without cell counting) of five species of animals and TL134, and the buffer control sample was incubated with WME medium and TL134. All samples were incubated at 37° C. for 180 min, and then 100 μL of ice-cold acetonitrile was added to stop the reaction. The samples were stored at −70° C. for ready to be tested, and all incubation samples were double samples.
# Triple TOF 5600′ quadrupole-time-of-flight tandem mass spectrometer (Q-TOF MS), equipped with electrospray ionization source (ESI source) and CDS automatic calibration system, AB SCIEX Company, USA; Acquity UPLC liquid chromatography system, including binary infusion pump, autosampler, column oven, degasser and TUV ultraviolet detector, Waters Company, USA. […]
IC50 [1],"prototype drug metabolized, judging from the UV chromatographic peak areas [2]",SMILES
1.2 nM,,"CCc1ccc2c(c1)c(=O)c(C(=O)Nc1ccc(Oc3ncnc4cc(OCCCN5CCOCC5)c(OC)cc34)c(F)c1)c(C)n2C [GDL5000123, 6-ethyl-N-(3-fluoro-4-((6-methoxy-7-(3-morpholinopropoxy)quinazolin-4-yl)oxy)phenyl)-1,2-dime thyl-4-oxo-1,4-dihydroquinoline-3-carboxamide, reference compound]"
1.1 nM,~3.0%,"COc1cc2c(Oc3ccc(NC(=O)c4c(C)n(C)c5ccc(OC(F)(F)F)cc5c4=O)cc3F)ncnc2cc1OCCCN1CCOCC1 [TL-134, N-(3-fluoro-4-((6-methoxy-7-(3-morpholinopropoxy)quinazolin-4-yl)oxy)phenyl)-1,2-dim ethyl-4-oxo-6-(trifluoromethoxy)-1,4-dihydroquinoline-3-carboxamide]"
